1 substance from patent US7575882B2, “Compositions and methods for identifying modulators of TRPV2” (Janssen Pharmaceutica N. V., priority 2005, dated 2009) can be followed below.

One assay deals with T1, human TRPV1 (Homo sapiens, UniProt Q8NER1).
T1 construct: expressed in transfected cells; host or cells: HEK293
Nature of the assay: FLIPR assay in HEK293 cells expressing human TRPV1. The class given is cell-based. The following applies: Δ^9-THC 240 μM, cannabinol 600 μM, others 120 μM. The procedure: A selected number of cannabinoids were also tested against HEK293 cells expressing human TRPV1 and canine TRPM8 in the FLIRP assay.

Assay [1] addresses T2, co-expressed TRPV2 chimeras RRH and HRR (Rattus norvegicus, UniProt Q9WUD2).
T2 construct: expressed in transfected cells; host or cells: HEK293, transient co-expression, pCI-neo
T2 sequence (Q9WUD2 with tags, fused parts or gaps H651S/D654T/N655D/DEL680-680/H683Q/E685A/R687V/L688M/K690T/R694K/G695P/T698S/A714S/K717Q/S723C): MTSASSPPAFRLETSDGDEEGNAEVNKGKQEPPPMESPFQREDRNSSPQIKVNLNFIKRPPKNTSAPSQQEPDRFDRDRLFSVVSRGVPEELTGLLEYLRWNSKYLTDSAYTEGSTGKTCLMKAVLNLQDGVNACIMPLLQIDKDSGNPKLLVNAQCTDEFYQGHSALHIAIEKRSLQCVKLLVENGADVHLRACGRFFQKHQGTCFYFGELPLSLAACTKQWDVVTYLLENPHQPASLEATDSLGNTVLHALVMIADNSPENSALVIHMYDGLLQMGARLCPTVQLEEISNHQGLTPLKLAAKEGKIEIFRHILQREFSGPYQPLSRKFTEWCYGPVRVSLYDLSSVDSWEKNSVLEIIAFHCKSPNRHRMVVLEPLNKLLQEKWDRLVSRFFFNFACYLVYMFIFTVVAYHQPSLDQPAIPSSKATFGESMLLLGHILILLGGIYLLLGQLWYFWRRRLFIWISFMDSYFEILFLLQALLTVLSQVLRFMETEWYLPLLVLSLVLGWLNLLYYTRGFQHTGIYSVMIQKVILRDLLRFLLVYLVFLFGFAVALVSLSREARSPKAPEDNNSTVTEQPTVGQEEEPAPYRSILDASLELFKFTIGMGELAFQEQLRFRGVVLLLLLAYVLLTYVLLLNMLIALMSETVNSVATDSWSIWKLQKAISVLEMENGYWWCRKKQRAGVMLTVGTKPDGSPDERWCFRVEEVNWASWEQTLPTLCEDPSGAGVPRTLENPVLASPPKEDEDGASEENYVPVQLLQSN
T2 sequence (Q9WUD2 with tags, fused parts or gaps P38Q/R41G/N45K/S46F/S47A/K51R/DEL56-59/P60Y/P61R/N63G/S65G/DEL67-67/Q70P/E71D/D73N/S82N/V83A/E91D/T93A/L96P/R100S/W101K/N102T/A110E/Q129K/M137L/K144R/K150Q/L151P/E160D/F161Y/Q163R/D189N/L192A/H202G/T227S/E240Q/L245Q/A257S/P261A/S264I/I268T/H269S/M277A/E289D/S291R/H293L/G295D/DEL322-322/Y323L/Q324S/P325H/S346A/W351C/K353E/N368H/E384A/R388L/V390I/S391P/R392K): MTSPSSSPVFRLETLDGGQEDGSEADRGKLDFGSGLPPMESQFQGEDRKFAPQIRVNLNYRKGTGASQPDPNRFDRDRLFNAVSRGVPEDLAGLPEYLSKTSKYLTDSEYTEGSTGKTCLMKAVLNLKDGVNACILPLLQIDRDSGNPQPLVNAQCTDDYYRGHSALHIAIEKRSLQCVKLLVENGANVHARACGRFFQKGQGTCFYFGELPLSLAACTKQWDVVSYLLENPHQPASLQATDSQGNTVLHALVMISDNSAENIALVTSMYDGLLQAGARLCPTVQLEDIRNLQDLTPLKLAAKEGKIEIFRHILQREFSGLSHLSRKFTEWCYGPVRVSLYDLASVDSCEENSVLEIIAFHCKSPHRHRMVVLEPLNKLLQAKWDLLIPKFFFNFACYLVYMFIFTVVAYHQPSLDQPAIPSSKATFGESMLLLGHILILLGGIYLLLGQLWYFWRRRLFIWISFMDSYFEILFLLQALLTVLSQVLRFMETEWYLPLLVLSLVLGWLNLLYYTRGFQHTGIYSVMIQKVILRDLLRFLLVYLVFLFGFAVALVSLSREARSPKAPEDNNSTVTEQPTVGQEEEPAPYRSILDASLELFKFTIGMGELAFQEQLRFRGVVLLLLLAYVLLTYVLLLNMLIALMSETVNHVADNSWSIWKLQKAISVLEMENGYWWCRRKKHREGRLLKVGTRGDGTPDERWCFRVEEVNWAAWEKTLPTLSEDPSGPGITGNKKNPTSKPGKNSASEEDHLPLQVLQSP
Description: Calcium mobilization in HEK293 cells co-expressing TRPV2 chimeras RRH and HRR. The following applies: co-expression in HEK cells. The class given is cell-based, rat/human. The procedure: The deletion mutant constructs were then transfected into HEK293 cells using Fugene 6 reagent (Roche) as per the manufacturer's instructions. At 24 hours post-transfection, the cells were harvested and replated in fresh DMEM medium supplemented with 10% fetal bovine serum, 100 units/ml penicillin, and 100 μg/ml streptomycin. The cells were distributed onto poly-D-Lysine coated 96-or 384-well plates at a density of approximately 40,000 and 10,000 cells per well, respectively. At approximately 48 hours post-transfection, the medium was removed from the assay plate and replaced with Calcium 3 Dye Buffer (Molecular Devices) using the protocol available from the manufacturer. Calcium mobilization was triggered using Δ^9-THC or 2-APB or elevated temperature buffer and measured using either FLIPR or FLEX STATION instruments.
Based on the predicted topology and primary sequence features of TRPV2, TRPV2 are divided into 3 major domains: 1) the amino-terminal intracellular domain; 2) the transmembrane domain; and 3) the carboxyl-terminal intracellular domain. For a chimera, each domain can be of rat (R) or human (H) origin. Three rat and human TRPV2 chimera were constructed and tested herein. RRH (SEQ ID NO:15) was a chimera comprising rat 1-392 aa, rat 393-646 aa, and human 647-764 aa. RHR (SEQ ID NO:16) was a chimera comprising rat 1-392, human 391-646, and rat 647-761. […]
Background: Calcium flux is commonly read through the fluorescence of an indicator in the cells.

T1 sequence (Q8NER1 whole entry): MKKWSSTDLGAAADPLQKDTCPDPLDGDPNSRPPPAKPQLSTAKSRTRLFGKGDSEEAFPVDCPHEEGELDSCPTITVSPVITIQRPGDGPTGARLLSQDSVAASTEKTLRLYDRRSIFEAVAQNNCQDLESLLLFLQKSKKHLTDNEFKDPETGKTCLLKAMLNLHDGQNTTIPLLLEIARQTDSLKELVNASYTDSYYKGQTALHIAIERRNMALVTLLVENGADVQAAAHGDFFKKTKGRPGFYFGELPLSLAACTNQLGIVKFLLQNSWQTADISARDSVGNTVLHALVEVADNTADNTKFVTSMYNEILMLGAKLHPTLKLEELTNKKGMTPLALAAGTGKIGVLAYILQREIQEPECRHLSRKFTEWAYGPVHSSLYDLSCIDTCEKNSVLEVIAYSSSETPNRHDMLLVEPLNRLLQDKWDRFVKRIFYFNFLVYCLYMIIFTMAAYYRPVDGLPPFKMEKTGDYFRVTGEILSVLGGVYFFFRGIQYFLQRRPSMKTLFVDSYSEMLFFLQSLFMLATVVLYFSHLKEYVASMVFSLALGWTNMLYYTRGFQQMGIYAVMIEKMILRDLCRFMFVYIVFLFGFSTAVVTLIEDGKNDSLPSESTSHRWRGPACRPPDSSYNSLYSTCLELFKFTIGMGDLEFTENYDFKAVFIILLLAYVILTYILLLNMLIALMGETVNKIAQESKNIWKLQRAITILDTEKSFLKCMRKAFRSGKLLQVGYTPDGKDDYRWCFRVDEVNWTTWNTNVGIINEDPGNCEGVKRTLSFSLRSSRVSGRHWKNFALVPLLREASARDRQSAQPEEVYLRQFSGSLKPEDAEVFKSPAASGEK

Regarding Delta-9-tetrahydrocannabinol [Δ^9-THC], at human TRPV1, the “activation of TRPV1” value is reported as “no significant activation”. In addition, the “response of cells co-expressing both chimeras to the compound” value in assay [1] is on record as “fully responsive”.
